Read-outs that look alike come from different tables or passages of the source.
Assays:
Format in all cases: cell-based
[1] = target: T1, CCNE1 (Homo sapiens, UniProt P24864); experiment: HiBit Assay Protocol for CCNE1 (HIBIT protein quantification, degradation); conditions: HEK293-CCNE1-Hibit cells, compound treatment for 6 hours
T1 construct: host or cells: HEK293-CCNE1-Hibit
Outline: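 HEK293 cells expressing HiBiT-tagged CCNE1 were seeded overnight, then treated 6 h with a 3-fold, 10-point compound dilution series. HiBiT levels were read by lytic LgBiT luminescence and normalised to DMSO-only (high) and medium-only (low) controls. DC50 was derived by curve fitting.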

[2] = target: T2, CDK9 (Homo sapiens, UniProt P50750); experiment: HiBit Assay Protocol for CDK9 (HIBIT protein quantification, degradation); conditions: HEK293-CDK9-Hibit cells, compound treatment for 6 hours, read-out: CDK9 HIBIT Protein Quantification Maximum
T2 construct: host or cells: HEK293-CDK9-Hibit
Outline: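 HEK293 cells carrying HiBiT-tagged CDK9 treated 6 h with compounds in a 3-fold, 10-point dilution series. CDK9 level read by lytic Nano-Glo HiBiT/LgBiT luminescence and normalized to 0.1% DMSO (high) and medium-only (low) controls. DC50 from curve fitting.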

[3] = target: T3, CDK2 (Homo sapiens, UniProt P24941); experiment: HiBit Assay Protocol for CDK2 (HIBIT protein quantification, degradation); conditions: HEK293-CDK2-Hibit cells, compound treatment for 6 hours; for DC50: ABS DC50
T3 construct: host or cells: HEK293-CDK2-Hibit
Outline: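 HEK293 cells expressing HiBiT-tagged CDK2 were seeded overnight, then treated 6 h with a 3-fold, 10-point compound dilution series. CDK2 levels were read as luminescence after lytic HiBiT/LgBiT detection, normalised to DMSO-only and medium-only controls, and DC50 derived by curve fitting.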

T2 sequence (P50750 whole entry): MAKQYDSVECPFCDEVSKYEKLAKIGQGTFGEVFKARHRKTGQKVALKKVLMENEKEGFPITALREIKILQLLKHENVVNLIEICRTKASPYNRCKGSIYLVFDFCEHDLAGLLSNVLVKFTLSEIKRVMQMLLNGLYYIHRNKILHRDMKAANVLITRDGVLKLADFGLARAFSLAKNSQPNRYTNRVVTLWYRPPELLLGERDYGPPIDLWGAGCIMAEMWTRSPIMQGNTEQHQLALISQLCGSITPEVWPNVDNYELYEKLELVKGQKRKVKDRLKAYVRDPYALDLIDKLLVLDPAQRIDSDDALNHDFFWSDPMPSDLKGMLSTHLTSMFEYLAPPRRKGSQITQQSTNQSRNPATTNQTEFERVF
T1 sequence (P24864 whole entry): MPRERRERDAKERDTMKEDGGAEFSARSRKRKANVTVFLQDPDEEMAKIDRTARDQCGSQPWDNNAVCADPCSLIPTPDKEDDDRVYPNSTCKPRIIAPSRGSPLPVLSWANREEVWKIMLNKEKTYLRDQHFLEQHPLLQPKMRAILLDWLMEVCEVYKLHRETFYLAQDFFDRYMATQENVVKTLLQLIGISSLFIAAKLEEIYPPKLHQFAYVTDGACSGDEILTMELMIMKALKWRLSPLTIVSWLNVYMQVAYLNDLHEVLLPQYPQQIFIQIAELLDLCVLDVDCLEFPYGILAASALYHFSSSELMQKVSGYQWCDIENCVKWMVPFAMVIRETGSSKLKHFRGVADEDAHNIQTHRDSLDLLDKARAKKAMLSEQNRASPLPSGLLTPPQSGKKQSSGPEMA

SMILES | CCNE1 HIBIT Protein Quantification Maximum [1] | CDK2 HIBIT Protein Quantification Maximum [3] | DC50 [3] | Dmax ([2]; 6 h) | Dmax [2]
Cn1nc(N2CCC(=O)NC2=O)c2ccc(C3CCN(Cc4cc(F)cc(S(=O)(=O)N5CCC(Nc6ncc7c(n6)N([C@@H]6CCC[C@@H](O)C6)C(=O)C76CC6)CC5)c4)CC3)cc21 [Compound 170, 1-[6-(1-{[3-Fluoro-5-(4-{7′-[(1R,3R)-3-hydroxycyclohexyl]-6′-oxospiro[cyclopropane-1,5′-pyrrolo[2,3-d]pyrimidin]-2′-ylamino}piperidin-1-ylsulfonyl)phenyl]methyl}piperidin-4-yl)-1-methylindazol-3-yl]-1,3-diazinane-2,4-dione] | 46% | 75% | 3.63 nM |  | 5%
Cn1nc(N2CCC(=O)NC2=O)c2ccc(C3CCN(Cc4cccc(S(=O)(=O)N5CCC(Nc6ncc7c(n6)N([C@H]6CCC[C@]6(C)O)C(=O)C76CC6)CC5)c4)CC3)cc21 [Compound 178] | 38% | 75% | 1.8 nM | 23% | 
Cn1c(=O)n(C2CCC(=O)NC2=O)c2ccc(N3CCN(Cc4cccc(S(=O)(=O)N5CCC(Nc6ncc7c(n6)N([C@@H]6CCC[C@@H](O)C6)C(=O)C76CC6)CC5)c4)CC3)cc21 (stereo partly drawn) [Compound 179, 3-[5-(4-{[3-(4-{7′-[(1R,3R)-3-Hydroxycyclohexyl]-6′-oxospiro[cyclopropane-1,5′-pyrrolo[2,3-d]pyrimidin]-2′-ylamino}piperidin-1-ylsulfonyl)phenyl]methyl}piperazin-1-yl)-3-methyl-2-oxo-1,3-benzodiazol-1-yl]piperidine-2,6-dione] | 20% | 78% | 7.82 nM | 15% | 
Cn1c(=O)n(C2CCC(=O)NC2=O)c2cccc(N3CCN(Cc4cccc(S(=O)(=O)N5CCC(Nc6ncc7c(n6)N([C@@H]6CCC[C@@H](O)C6)C(=O)C76CC6)CC5)c4)CC3)c21 (stereo partly drawn) [Compound 181, 3-[4-(4-{[3-(4-{7′-[(1R,3R)-3-hydroxycyclohexyl]-6′-oxospiro[cyclopropane-1,5′-pyrrolo[2,3-d]pyrimidin]-2′-ylamino}piperidin-1-ylsulfonyl)phenyl]methyl}piperazin-1-yl)-3-methyl-2-oxo-1,3-benzodiazol-1-yl]piperidine-2,6-dione] | 38% | 77% | 6.02 nM | 11% | 
Cn1nc(N2CCC(=O)NC2=O)c2ccc(C3CCN(Cc4cccc(S(=O)(=O)N5CCC(Nc6ncc7c(n6)N([C@@H]6CCC[C@@H](O)C6)C(=O)C76CC6)CC5)c4)C(C)(C)C3)cc21 (stereo partly drawn) [Compound 183, 1-[6-(1-{[3-(4-{7′-[(1R,3R)-3-Hydroxycyclohexyl]-6′-oxospiro[cyclopropane-1,5′-pyrrolo[2,3-d]pyrimidin]-2′-ylamino}piperidin-1-ylsulfonyl)phenyl]methyl}-2,2-dimethylpiperidin-4-yl)-1-methylindazol-3-yl]-1,3-diazinane-2,4-dione] | 43% | 67% | 2.84 nM | 24% | 
Cn1nc(N2CCC(=O)NC2=O)c2ccc(N3CCN(Cc4cccc(S(=O)(=O)N5CCC(Nc6ncc7c(n6)N([C@@H]6CCC[C@@H](O)C6)C(=O)C76CC6)CC5)c4)CC3)cc21 [Compound 184] | 43% | 90% | 5.47 nM | 22% | 
CC1CN(Cc2cccc(S(=O)(=O)N3CCC(Nc4ncc5c(n4)N([C@@H]4CCC[C@@H](O)C4)C(=O)C54CC4)CC3)c2)CCN1c1ccc2c(N3CCC(=O)NC3=O)nn(C)c2c1 (stereo partly shown) [Compound 185] | 36% | 84% | 6.77 nM | 5% | 
Cn1nc(N2CCC(=O)NC2=O)c2ccc(C3CCN(CC4CCCN(S(=O)(=O)N5CCC(Nc6ncc7c(n6)N([C@@H]6CCC[C@@H](O)C6)C(=O)C76CC6)CC5)C4)CC3)cc21 (stereo partly drawn) [Compound 186, 1-[6-(1-{[1-(4-{7′-[(1R,3R)-3-Hydroxycyclohexyl]-6′-oxospiro[cyclopropane-1,5′-pyrrolo[2,3-d]pyrimidin]-2′-ylamino}piperidin-1-ylsulfonyl)piperidin-3-yl]methyl}piperidin-4-yl)-1-methylindazol-3-yl]-1,3-diazinane-2,4-dione] | 43% | 62% | 2.82 nM | 27% | 
CC(c1cccc(S(=O)(=O)N2CC[C@H](Nc3ncc4c(n3)N([C@@H]3CCC[C@@H](O)C3)C(=O)C43CC3)[C@H](F)C2)c1)N1CCN(c2ccc3c(N4CCC(=O)NC4=O)nn(C)c3c2)CC1 (stereo partly shown) [Compound 187] | 45% | 91% | 4.32 nM | 11% | 
CC(c1cccc(S(=O)(=O)N2CC[C@H](Nc3ncc4c(n3)N([C@@H]3CCC[C@@H](O)C3)C(=O)C43CC3)[C@H](F)C2)c1)N1CCC(c2ccc3c(N4CCC(=O)NC4=O)nn(C)c3c2)CC1 (stereo partly shown) [Compound 188] | 45% | 85% | 1.92 nM | 24% | 

Now from value to compound, other results behind:

CCNE1 HIBIT Protein Quantification Maximum [1] | CDK2 HIBIT Protein Quantification Maximum [3] | DC50 [3] | Dmax ([2]; 6 h) | SMILES | Dmax [2]
29% | 55% | 4.43 nM | 15% | Cn1nc(N2CCC(=O)NC2=O)c2ccc(C3CCN(Cc4ccc(F)c(S(=O)(=O)N5CCC(Nc6ncc7c(n6)N([C@@H]6CCC[C@@H](O)C6)C(=O)C76CC6)CC5)c4)CC3)cc21 [Compound 171] | 
49% | 74% | 4.05 nM | 17% | Cn1nc(N2CCC(=O)NC2=O)c2ccc(C3CCN(Cc4cccc(S(=O)(=O)N5CCC(Nc6ncc7c(n6)N([C@@H]6CCC[C@@H](O)C6)C(=O)C76CC6)CC5)c4F)CC3)cc21 [Compound 172] | 
44% | 78% | 4.19 nM | 8% | Cn1nc(N2CCC(=O)NC2=O)c2ccc(C3CCN(Cc4cccc(S(=O)(=O)N5CCC(Nc6ncc7c(n6)N([C@@H]6CCC[C@@H](O)C6)C(=O)C76CC6)CC5)c4)CC3)c(F)c21 [Compound 175, 1-[7-fluoro-6-(1-{[3-(4-{7′-[(1R,3R)-3-Hydroxycyclohexyl]-6′-oxospiro[cyclopropane-1,5′-pyrrolo[2,3-d]pyrimidin]-2′-ylamino}piperidin-1-ylsulfonyl)phenyl]methyl}piperidin-4-yl)-1-methylindazol-3-yl]-1,3-diazinane-2,4-dione] | 
45% | 79% | 3.34 nM | 20% | Cn1nc(N2CCC(=O)NC2=O)c2cc(F)c(C3CCN(Cc4cccc(S(=O)(=O)N5CCC(Nc6ncc7c(n6)N([C@@H]6CCC[C@@H](O)C6)C(=O)C76CC6)CC5)c4)CC3)cc21 [Compound 176, 1-[5-Fluoro-6-(1-{[3-(4-{7′-[(1R,3R)-3-hydroxycyclohexyl]-6′-oxospiro[cyclopropane-1,5′-pyrrolo[2,3-d]pyrimidin]-2′-ylamino}piperidin-1-ylsulfonyl)phenyl]methyl}piperidin-4-yl)-1-methylindazol-3-yl]-1,3-diazinane-2,4-dione] | 
41% | 81% | 6.51 nM | 14% | Cn1nc(N2CCC(=O)NC2=O)c2ccc(C3CCN(Cc4cccc(S(=O)(=O)N5CCC(Nc6ncc7c(n6)N([C@@H]6CCC[C@@H](O)C6)C(=O)C76CC6)CC5)c4)CC3(F)F)cc21 (stereo partly drawn) [Compound 177, 1-[6-(3,3-difluoro-1-{[3-(4-{7′-[(1R,3R)-3-hydroxycyclohexyl]-6′-oxospiro[cyclopropane-1,5′-pyrrolo[2,3-d]pyrimidin]-2′-ylamino}piperidin-1-ylsulfonyl)phenyl]methyl}piperidin-4-yl)-1-methylindazol-3-yl]-1,3-diazinane-2,4-dione] | 
48% | 85% | 7.18 nM | 34% | Cn1nc(N2CCC(=O)NC2=O)c2ccc(C3CCN(Cc4cccc(S(=O)(=O)N5CCC(Nc6ncc7c(n6)N([C@@H]6CCC[C@@H](O)C6)C(=O)C76CC6)CC5)c4)CC3F)cc21 (stereo partly drawn) [Compound 180, 1-[6-(3-Fluoro-1-{[3-(4-{7′-[(1R,3R)-3-hydroxycyclohexyl]-6′-oxospiro[cyclopropane-1,5′-pyrrolo[2,3-d]pyrimidin]-2′-ylamino}piperidin-1-ylsulfonyl)phenyl]methyl}piperidin-4-yl)-1-methylindazol-3-yl]-1,3-diazinane-2,4-dione] | 

From patent publication US20260070917A1, “CYCLIN DEPENDENT KINASE DEGRADERS AND METHODS OF USE THEREOF” (Differentiated Therapeutics Inc, priority 2023, published 2026)
